The values below come from patent US10344019B2 (priority 2010, dated 2019).

Holding throughout (test): microbe, parasite or virus in culture
Holding throughout (type): cell-based

Experiment [1] deals with HCV 1a RLuc cells (dicistronic genotype 1a H77 replicon, RLuc reporter). To be noted: Hepatitis C virus, 72 h, Table 2; genotype 1a H77 replicon, 72 hours; read-out: 1a. Put shortly:
(§1)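 Replicon cells stably carrying the listed RLuc-encoding dicistronic replicons were seeded and treated with DMSO serial dilutions of compound (10 mM stocks) diluted into culture medium. After 72 h, cells were lysed and Renilla luciferase activity measured. EC50 was derived by non-linear regression.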
Background: Replicon systems follow genome replication, usually without infectious particles.

Experiment [2] has as its system HCV 1b RLuc cells (dicistronic genotype 1b Con1 replicon, RLuc reporter). To be noted: Hepatitis C virus, 72 h, read-out: 1b (nM). The method in brief: as §1
The subject of experiment [3] is HCV 2a JFH-1 Rluc cells (dicistronic genotype 2a JFH-1 replicon, RLuc reporter). To be noted: Hepatitis C virus, 72 h, Table 2; genotype 2a JFH-1 replicon, 72 hours; read-out: 2a JFH. The method in brief: as §1
Experiment [4] relates to HCV 3a RLuc cells (NS5A chimeric genotype 1b Con1 replicon with consensus genotype 3a NS5A gene). To be noted: Hepatitis C virus, read-out: 3a, Table 2; genotype 3a NS5A chimeric replicon. The method in brief: as §1
The subject of experiment [5] is HCV 4a Rluc cells (NS5A chimeric genotype 1b Con1 replicon with genotype 4a NS5A gene). To be noted: Hepatitis C virus, read-out: 4a. Put shortly:
as §1

Each structure is given as a SMILES string.

As to `COC(=O)N[C@H](C(=O)N1[C@@H]2CC[C@@H](C2)[C@H]1c1ncc(-c2ccc(-c3ccc4cc(-c5cnc([C@@H]6CCCN6C(=O)[C@H](NC(=O)OC)c6ccccc6)[nH]5)ccc4c3)cc2)[nH]1)[C@@H](C)OC` [Example 72], the EC50 in experiment [1] is 0.001 to 0.999 nM; in experiment [2] it was 0.006 nM; in experiment [3] it was 0.001 to 0.999 nM; in experiment [4], 0.001 to 0.99 nM; in experiment [5], 0.001 to 0.99 nM.
`COC(=O)N[C@H](C(=O)N1CCC[C@H]1c1ncc(-c2ccc3c(c2)CCc2cc(-c4cnc([C@@H]5[C@H]6CC[C@H](C6)N5C(=O)[C@@H](NC(=O)OC)[C@@H](C)OC)[nH]4)ccc2-3)[nH]1)[C@@H](C)OC` [Example 73]: the EC50 in experiment [1] was 0.001 to 0.999 nM; in experiment [2] it was 0.038 nM; in experiment [3], 0.001 to 0.999 nM; in experiment [4], 1 to 4.99 nM; in experiment [5], 0.001 to 0.99 nM.
On to `COC(=O)N[C@H](C(=O)N1CCC[C@H]1c1ncc(-c2ccc3c(c2)OCc2cc(-c4ccc5nc([C@@H]6[C@H]7CC[C@H](C7)N6C(=O)[C@@H](c6ccccc6)N(N)C(=O)OC)[nH]c5c4)ccc2-3)[nH]1)C(C)C` [Example 74], for which the EC50 in experiment [1] was 0.001 to 0.999 nM; in experiment [2], 0.006 nM; in experiment [3], 0.001 to 0.999 nM; in experiment [4] it was 0.001 to 0.99 nM; in experiment [5], 0.001 to 0.99 nM.
In the case of `COC(=O)NC(C(=O)N1[C@@H]2CC[C@@H](C2)[C@H]1c1nc2ccc(-c3ccc4c(c3)C(F)(F)c3cc(-c5c[nH]c([C@H]6CCCN6C(=O)[C@H](NC(=O)OC)c6ccccc6)n5)ccc3-4)cc2[nH]1)[C@@H](C)OC` (stereo partly drawn) [Example 75], the EC50 in experiment [1] is 0.001 to 0.999 nM; in experiment [2], 0.005 nM; in experiment [3], 0.001 to 0.999 nM; in experiment [4] it was 0.001 to 0.99 nM; in experiment [5], 0.001 to 0.99 nM.
As to `COC(=O)N[C@H](C(=O)N1CCC[C@H]1c1ncc(-c2ccc3c(c2)CCc2cc(-c4ccc5nc([C@@H]6[C@H]7CC[C@H](C7)N6C(=O)[C@@H](NC(=O)OC)[C@@H](C)OC)[nH]c5c4)ccc2-3)[nH]1)[C@@H](C)OC` [Example 76], the EC50 was 0.001 to 0.999 nM in experiment [1]; 0.01 nM in experiment [2]; 1 to 44 nM in experiment [3]; 1 to 4.99 nM in experiment [4]; 0.001 to 0.99 nM in experiment [5].
On the same counts, the results for `COC(=O)N[C@H](C(=O)N1CCC[C@H]1c1ncc(-c2ccc3c(c2)CCc2cc(-c4ccc5nc([C@@H]6[C@H]7CC[C@H](C7)N6C(=O)[C@@H](NC(=O)OC)C6CCOCC6)[nH]c5c4)ccc2-3)[nH]1)C1CCOCC1` [Example 77] are 0.001 to 0.999 nM, 0.029 nM, 0.001 to 0.999 nM, 0.001 to 0.99 nM and 0.001 to 0.99 nM.
On the same counts, the results for `COC(=O)N[C@H](C(=O)N1CCC[C@H]1c1ncc(-c2ccc3c(c2)CCc2cc(-c4ccc5nc([C@@H]6[C@H]7CC[C@H](C7)N6C(=O)[C@H](NC(=O)OC)c6ccccc6)[nH]c5c4)ccc2-3)[nH]1)C1CCOCC1` [Example 78] are 0.001 to 0.999 nM, 0.013 nM, 0.001 to 0.999 nM, 0.001 to 0.99 nM and 0.001 to 0.99 nM.
On the same counts, the results for `COC(=O)N[C@H](C(=O)N1CCC[C@H]1c1ncc(-c2ccc3c(c2)CCc2cc(-c4cnc([C@@H]5[C@H]6CC[C@H](C6)N5C(=O)[C@@H](NC(=O)OC)C5CCOCC5)[nH]4)ccc2-3)[nH]1)C1CCOCC1` [Example 79] are 0.001 to 0.999 nM, 0.231 nM, 0.001 to 0.999 nM, 0.001 to 0.99 nM and 0.001 to 0.99 nM.
Take `COC(=O)NC(C(=O)N1CCC[C@@H]1c1nc(-c2ccc3c(c2)C(F)(F)c2cc(-c4ccc5nc([C@@H]6[C@H]7CC[C@H](C7)N6C(=O)[C@H](NC(=O)OC)c6ccccc6)[nH]c5c4)ccc2-3)c[nH]1)[C@@H](C)OC` (stereo partly drawn) [Example 81]: the EC50 in experiment [1] was 0.001 to 0.999 nM; in experiment [2] it was 0.006 nM; in experiment [3] it was 0.001 to 0.999 nM; in experiment [4] it was 0.001 to 0.99 nM; in experiment [5], 0.001 to 0.99 nM.
